Here are results for 34 compounds from patent US9290427B2, “Anti-invasive compounds” (Universiteit Gent, priority 2012, dated 2016).

Read-outs that look alike come from different tables or passages of the source.

The test system of assay [1] is MCF-7/6 mammary carcinoma cells. In words: chick heart invasion assay. To be noted: for Actual in vitro activity class: compounds 37-51, Table 11; for Actual class: training set compounds 37-51, class = log cmin, lowest concentration with invasion grade I or II; for anti-invasive activity class act.: validation set, in vitro. It is filed as cell-based, human. Also on record: unit not given here. An excerpt:
“Anti-invasive” or “anti-invasive activity” is the ability to inhibit the invasiveness of tumor cells. Invasion by tumor cells is defined as the progressive occupation and destruction of their environment, and is the result of matrix degradation and directional cell motility. Anti-invasive activity of a compound is the ability to inhibit or block invasion, and can be assessed by counting the number of invading cells, by the depth of their invasion and/or by the amount of environmental destruction. Many assays in vitro can be applied to test for anti-invasive activity (for a complete list see Bracke et al. 2008). The three most popular ones are: • Chick heart invasion assay (Bracke et al., 2001, see details below). The cut-off value is between grade II (non-invasive) and grade III (invasive). […] Collagen gels, prepared on the bottom of plastic wells are covered with a test cell suspension, and incubated with liquid culture medium for 24 h. Invasion is evaluated with an inverted phase-contrast microscope, and is based on the percentage of cells showing extensions in the gel. […] Matrigel is a mixture of basement membrane components, and is applied as a semi-solid layer on top a filter with pores allowing the transgression of cells. The test cell suspension is seeded on top of the gel, and incubated for 1 day in a two-compartment chamber system. Invasion is then evaluated via the percentage of cells that are attached to the lower side of the filter.
In the chick heart invasion assay cancer cells are confronted with a fragment of normal tissue, so as not to neglect the contribution of the host tissue in the micro-ecosystem that governs tumor behavior. As such, precultured heart tissue fragments (PHFs), dissected from 9-day-old chicken embryos, may be confronted with aggregates of human invasive MCF-7/6 mammary carcinoma cells in the presence of a certain concentration of a test compound. After eight days, the interaction between the cancer cells and the PHF is evaluated histologically and classified along a 5-grades subjective scale (Bracke et al., 2001). Grades III and IV are typical for invasion, while grades 0, I and II correspond to absence of invasion. Compounds that inhibit invasion of confronting cancer cells i.e. from III/IV to 0/I/II, are determined as anti-invasive. Possible alternative assays generally known in the art are the type I collagen invasion assay, wound healing assay and the matrigel invasion assay.
“Anti-invasive” refers to the ability to inhibit invasion of the tumor or cancer cell into surrounding tissue (within or outside the organ of origin). […] This screening method confronts cancer cells with a fragment of normal tissue, so as not to neglect the contribution of the host tissue in the micro-ecosystem that governs tumor behavior. The interaction between the cancer cells and the normal tissue is evaluated histologically and classified along a 5-grades subjective scale. Grades III and IV are typical for invasion, while grades 0, I and II correspond to absence of invasion. Compounds that inhibit invasion of confronting cancer cells i.e. from III/IV to 0/I/II, are determined as anti-invasive. Possible alternative assays generally known in the art are the type I collagen invasion assay and the Matrigel invasion assay.
The potency of these molecules had been evaluated by means of the chick heart invasion assay, as described herein before.

The test system is the same in assay [2]. Further details: unit not given here. Conditions: training set compounds 1-34, Indo-Belgian screening program; class = log cmin, lowest concentration with invasion grade I or II; cited from earlier work.

Turning to `COc1ccc(/C=C/C(=O)c2ccc(OC)cc2)cc1` [Compound 40, (2E)-3-(4-Methoxyphenyl)-1-(4-methoxyphenyl)propenone], in assay [1], the “Actual in vitro activity class” value is listed as 1 (about 10) and the Actual class is given as 1 (about 10).

With `COc1ccc(/C=C/C(=O)c2c(O)c3c(c4c2OC(C)(C)CC4)OC(C)(C)CC3)cc1OCc1ccccc1` [Compound 7, (2E)-3-(3-Benzyloxy-4-methoxy-phenyl)-1-(5-hydroxy-2,2,8,8-tetramethyl-3,4,9,10-tetrahydro-2H,8H-pyrano[2,3-f]chromen-6-yl)propenone], the Actual class in assay [2] is 3 (>100).

Consider `COc1ccc(C(=O)/C=C/c2ccc([N+](=O)[O-])cc2)cc1OC` [Compound 20, (2E)-3-(4-nitrophenyl)-1-(3′,4′-dimethoxyphenyl)propenone], for which the Actual class in assay [2] was 3 (>100).

As for `O=C(/C=C/c1cccc(F)c1)c1ccc(F)cc1` [Compound 53, (2E)-3-(3-Fluorophenyl)-1-(4-fluorophenyl)propenone], the “anti-invasive activity class act.” value in assay [1] is −1 (about 0.1).

Turning to `COc1ccc(C(=O)/C=C/c2ccccc2)cc1` [Compound 38, (2E)-3-phenyl-1-(4-methoxyphenyl)propenone], in assay [1], the “Actual in vitro activity class” value is reported as 1 (about 10) and the Actual class is listed as 1 (about 10).

As to `O=C(/C=C/c1ccoc1)c1ccc(F)cc1` [Compound 77, (2E)-3-(3-Furanyl)-1-(4-fluorophenyl)propenone], in assay [1], the “anti-invasive activity class act.” value is given as −1 (about 0.1).

With `CC1(C)CCc2c(O)c(C(=O)/C=C/c3cccc([N+](=O)[O-])c3)c3c(c2O1)CCC(C)(C)O3` [Compound 88, (2E)-1-(5-Hydroxy-2,2,8,8-tetramethyl-3,4,9,10-tetrahydro-2H,8H-pyrano[2,3-f]chromen-6-yl)-3-(3-nitro-phenyl)propenone], the “anti-invasive activity class act.” value in assay [1] is given as “≧3 (>100)”.

For `COc1cc(O)c(C(=O)/C=C/c2cccc([N+](=O)[O-])c2)cc1C(c1ccccc1)c1ccccc1` [Compound 89, (2E)-1-(5-Benzhydryl-2-hydroxy-4-methoxy-phenyl)-3-(3-nitro-phenyl)-propenone], the “anti-invasive activity class act.” value in assay [1] was “≧3 (>100)”.

Regarding `COc1cc(OC)c(C(=O)/C=C/c2cc(OC)c(OC)cc2OC)c(OC)c1` [Compound 42, (2E)-3-(2,4,5-Trimethoxyphenyl)-1-(2,4,6-trimethoxyphenyl)propenone], in assay [1], the “Actual in vitro activity class” value is reported as 1 (about 10) and the Actual class is on record as 1 (about 10).

In the case of `O=C(/C=C/c1ccc(F)cc1)c1ccc(F)cc1` [Compound 50, (2E)-3-(4-Fluorophenyl)-1-(4-fluorophenyl)propenone], in assay [1], the “Actual in vitro activity class” value is recorded as 1 (about 10) and the Actual class is 1 (about 10).

`O=C(/C=C/c1ccc(F)cc1)c1ccc(O)cc1` [Compound 58, (2E)-3-(4-Fluorophenyl)-1-(4-hydroxyphenyl)propenone]: in assay [1], the “anti-invasive activity class act.” value is reported as 1 (about 10).

For `COc1ccc(C(=O)/C=C/c2cccc(F)c2)cc1` [Compound 54, (2E)-3-(3-Fluorophenyl)-1-(4-methoxyphenyl)propenone], the “anti-invasive activity class act.” value in assay [1] was 1 (about 10).

On to `O=C(/C=C/c1ccco1)c1ccccc1` [Compound 72, (2E)-3-Furan-2-yl-1-phenylpropenone], for which the “anti-invasive activity class act.” value in assay [1] is “>=2 (about 100)”.

`COc1ccc(C(=O)/C=C/c2ccc(F)cc2)cc1` [Compound 48, (2E)-3-(4-Fluorophenyl)-1-(4-methoxyphenyl)propenone]: in assay [1], the “Actual in vitro activity class” value is 0 (about 1) and the Actual class is on record as 0 (about 1).

With `COc1cc(OC)c(/C=C/C(=O)c2c(OC)cccc2OC)c(OC)c1` [Compound 47, (2E)-3-(2,4,6-Trimethoxyphenyl)-1-(2,6-dimethoxyphenyl)propenone], in assay [1], the “Actual in vitro activity class” value is reported as 0 (about 1) and the Actual class is recorded as 0 (about 1).

Take `O=C(/C=C/c1cc2ccccc2o1)c1ccc(F)cc1` [Compound 78, (2E)-3-(2-Benzofuranyl)-1-(4-fluorphenyl)propenone]: in assay [1], the “anti-invasive activity class act.” value is recorded as 2 (about 100).

Regarding `COc1ccc(C(=O)/C=C/c2ccc(Cl)cc2)cc1` [Compound 52, (2E)-3-(4-chlorophenyl)-1-(4-methoxyphenyl)prop-2-en-1-one], the “anti-invasive activity class act.” value in assay [1] is −2 (about 0.01).

Regarding “(2E)-1,3-diphenylpropenone [Compound 37]”, in assay [1], the “Actual in vitro activity class” value is 1 (about 10) and the Actual class is given as 1 (about 10).

Turning to `COc1cc(C(=O)/C=C/c2ccco2)cc(OC)c1OC` [Compound 75, (2E)-3-(2-Furanyl)-1-(3,4,5-trimethoxyphenyl)propenone], in assay [1], the “anti-invasive activity class act.” value is recorded as −1 (about 0.1).

`COc1ccc(C(=O)/C=C/c2c(OC)cc(OC)cc2OC)cc1` [Compound 45, (2E)-1-(4-methoxyphenyl)-3-(2,4,6-trimethoxyphenyl)prop-2-en-1-one]: in assay [1], the “Actual in vitro activity class” value is −1 (about 0.1) and the Actual class is on record as −1 (about 0.1).

For the compound `COc1ccc(C(=O)/C=C/c2cccc(OC)c2)cc1` [Compound 41, (2E)-3-(3-Methoxyphenyl)-1-(4-methoxyphenyl)propenone], in assay [1], the “Actual in vitro activity class” value is recorded as 0 (about 1) and the Actual class is on record as 0 (about 1).

As for `COc1cccc(OC)c1C(=O)/C=C/c1ccco1` [Compound 76, (2E)-3-(2-Furanyl)-1-(2,6-dimethoxyphenyl)propenone], in assay [1], the “anti-invasive activity class act.” value is on record as −1 (about 0.1).

As for `COc1ccc(C(=O)/C=C/c2cc3ccccc3o2)cc1` [Compound 79], the “anti-invasive activity class act.” value in assay [1] is 2 (about 100).

`O=C(C=Cc1ccco1)c1ccco1` [Compound 70, 1,3-Difuran-2-yl-propenone]: the “anti-invasive activity class act.” value in assay [1] is −1 (about 0.1).

Turning to `CC(C)=CCn1cc(C(=O)/C=C/c2ccc(Cl)cc2)c2ccccc21` [Compound 85, (2E)-3-(4-Chlorophenyl)-1-[1-(3-methylbut-2-enyl)-1H-indol-3-yl]propenone], the “anti-invasive activity class act.” value in assay [1] is listed as “≧2 (about 100)”.

For the compound `O=C(/C=C/c1ccco1)c1ccc(F)cc1` [Compound 73, (2E)-3-(2-Furanyl)-1-(4-fluorophenyl)propenone], the “anti-invasive activity class act.” value in assay [1] was 2 (about 100).

With `COc1ccc(C(=O)C=Cc2ccco2)cc1` [Compound 74, 3-Furan-2-yl-1-(4-methoxyphenyl)propenone], in assay [1], the “anti-invasive activity class act.” value was 2 (about 100).

As to `COc1cc(OC)c(OC)cc1/C=C/C(=O)c1c(OC)cccc1OC` [Compound 46, (2E)-3-(2,4,5-Trimethoxyphenyl)-1-(2,6-dimethoxyphenyl)propenone], in assay [1], the “Actual in vitro activity class” value is reported as 1 (about 10) and the Actual class is 1 (about 10).

As to `COc1ccc(C(=O)/C=C/c2ccccc2F)cc1` [Compound 55, (2E)-3-(2-Fluorophenyl)-1-(4-methoxyphenyl)propenone], the “anti-invasive activity class act.” value in assay [1] is recorded as 1 (about 10).

As for `COc1ccc(/C=C/C(=O)c2ccccc2)cc1` [Compound 39, (2E)-3-(4-Methoxyphenyl)-1-phenylpropenone], in assay [1], the “Actual in vitro activity class” value is 1 (about 10) and the Actual class is 1 (about 10).

Take `COc1ccc(C(=O)/C=C/c2cc(OC)c(OC)cc2OC)cc1` [Compound 44, (2E)-3-(2,4,5-Trimethoxyphenyl)-1-(4-methoxyphenyl)propenone]: in assay [1], the “Actual in vitro activity class” value was 0 (about 1) and the Actual class is listed as 0 (about 1).

Regarding `C=CCn1cc(C(=O)/C=C/c2ccc(Cl)cc2)c2ccccc21` [Compound 84], in assay [1], the “anti-invasive activity class act.” value was “≧2 (about 100)”.

For the compound `CC(C)=CCOc1ccc(C(=O)/C=C/c2ccc(F)cc2)cc1` [Compound 62, (2E)-3-(4-Fluorophenyl)-1-[4-(3-methylbut-2-enyloxy)phenyl]propenone], the “anti-invasive activity class act.” value in assay [1] is “>=2 (about 100)”.

For the compound `O=C(C=Cc1ccc(F)cc1)c1ccco1` [Compound 68, 1-(2-Furyl)-3-(4-fluorophenyl)propenone], in assay [1], the “anti-invasive activity class act.” value is on record as 1 (about 10).
